According to patent US20200181089A1, “4-ANILINO-QUINOLINE COMPOUNDS AS ANTI-CANCER AGENTS” (INSERM (INSTITUT NATIONAL DE LA SANTÉ ET DE LA RECHERCHE …, priority 2016, published 2020):
Like-named read-outs stand apart in the source and are kept apart here.

Legend:
Format in all cases: cell-based
[1] = system: EZH2 transcription; experiment: Ability to decrease EZH2 mRNA level in A375 (dose-response, quantitative PCR); settings: Homo sapiens, A-375, 96 h; A375 cells, incubated 4 days; read-out: IC50 (concentration necessary to obtain 50% of EZH2 transcription activity)
Protocol: Typically, 30000-50000 cells were plated in six-well culture plates and incubated 24 h later with increasing concentration of NIK inhibitors or vehicle. Cells were incubated with the inhibitors for 4 days prior to harvesting for RNA extraction and PCR. Total RNA was isolated from cells using the RNAeasy minikit (Qiagen) according to the manufacturer's procedure. Reverse transcription was performed using the AMV reverse transcription system (Promega), and quantitative PCR was performed with Power Sybr green (Applied Biosystems, Life Technologies, Grand Island, N.Y.) following the manufacturer's instructions. The PCR was carried out on a Step One plus Real-Time PCR system (Applied Biosystems). All analyses were done in triplicate, and a melting curve analysis was performed to control for product quality and specificity. Expression levels were calculated using the comparative method of relative quantification, with SB34 as a normalizer. The data were analyzed for statistical significance using Student's t-test. The results are presented as the mean±SEM relative to the control. Primers were obtained from primer bank or primer depot (http://pga.mgh.harvard.edu/primerbank/, https://primerdepot.nci.nih.gov), and their specificity was verified using primer blast (http://www.ncbi.nlm.nih.gov/tools/primer-blast/).
Here IC50 represents the concentration necessary to obtain 50% of EZH2 transcription activity.

[2] = system: A375 cells; experiment: A375 cell proliferation assay (trypan blue exclusion); settings: Homo sapiens, A-375, treated/untreated cell number; for activity at 1 µM: A375, 1 μM; for activity at 10 µM: A375, 10 μM
Protocol: Cells were counted using a Malassez chamber. The average and standard deviation were calculated from triplicate experiments. Antiproliferative effects were evaluated by trypan blue exclusion assay. Briefly, cells were seeded into 12-well plate and grown in media supplemented with indicated compound at 1 or 10 μM for 48 h or 96 h. Cells were washed with PBS and detached by trypsinization, collected and colored by trypan blue. Dead and living cells were counted and proliferation was calculated as follow: Proliferation (%)=[(treated cell number/untreated cells number)*100].

[3] = system: normal human melanocyte; experiment: Melanocyte viability assay (trypan blue exclusion); settings: 96 h
Protocol: (§1) Cell viability effects were evaluated by trypan blue exclusion assay. Briefly, cells were seeded into 12-well plate and grown in media supplemented with indicated compound at 10 μM for 96 h. Cells were washed with PBS and detached by trypsinization, collected and colored by trypan blue. Dead and living cells were counted and cell viability was calculated as follow: Viability (%)=100−[(dead cell number/total cells)*100].

[4] = system: normal human fibroblast; experiment: Fibroblast viability assay (trypan blue exclusion); settings: 96 h
Protocol: as §1

[5] = 48 h, read-out: Proliferation (%) At 1 μM - 48 H
[6] = 96 h, read-out: Proliferation (%) At 1 μM - 96 H
[7] = 48 h, read-out: Proliferation (%) At 10 μM - 48 H
[8] = 96 h, read-out: Proliferation (%) At 10 μM - 96 H

Row | Compound | IC50 [1] | activity at 1 µM [2, 5] | activity at 1 µM [2, 6] | activity at 10 µM [2, 7] | activity at 10 µM [2, 8] | Viability (%) at 10 μM Melanocyte [3] | Viability (%) at 10 μM Fibroblast [4]
1 | Cc1ccc(Nc2ccnc3cc(Cl)ccc23)cc1 [Compound 2, 4-((4-methylphenyl)amino)-7-chloroquinolinium chloride] | 10 µM | – | – | – | – | – | –
2 | COc1cccc(Nc2ccnc3cc(Cl)ccc23)c1 [Compound 6, 4-((3-methoxyphenyl)amino)-7-chloroquinolinium chloride] | 15 µM | – | – | – | – | – | –
3 | Oc1ccc(Nc2ccnc3cc(Cl)ccc23)cc1 [Compound 7, 4-((4-hydroxyphenyl)amino)-7-chloroquinolinium chloride] | – | 84.6% | 91.1% | 95.2% | 79.4% | 99.1% | 97.7%
4 | Oc1ccc(Nc2ccnc3cc(Cl)ccc23)cc1Cl [Compound 8, 4-((4-hydroxy-3-chlorophenyl)amino)-7-chloroquinolinium chloride] | 15 µM | 81.3% | 74% | 82.1% | 67.5% | 98.0% | 98.6%
5 | COc1ccc(Nc2ccnc3cc(N4CCOCC4)ccc23)cc1 [Compound 13, N-(4-methoxyphenyl)-7-morpholinoquinolin-4-amine] | 15 µM | – | – | – | – | – | –
6 | Oc1ccc(Nc2ccc3c(Nc4cc(F)cc(F)c4)ccnc3c2)cc1Cl [Compound 19, 2-chloro-4-((4-((3,5-difluorophenyl)amino)quinolin-7-yl)amino)phenol] | – | 74.7% | 74.9% | 0.4% | 0% | – | –
7 | COc1cccc(Nc2ccc3c(Nc4cc(F)cc(F)c4)ccnc3c2)c1 [Compound 26, N^4-(3,5-difluorophenyl)-N^7-(3-methoxyphenyl)quinolin-4,7-diamine] | – | 54.9% | 9.9% | 0.4% | 0% | – | –
8 | COc1ccc(Nc2cc(OC)nc3cc(Cl)ccc23)cc1 [Compound 27, 7-chloro-2-methoxy-N-(4-methoxyphenyl)quinolin-4-amine] | – | 98.7% | 85.6% | 67.8% | 21.8% | 76.9% | 93.9%
9 | COc1ccc(Nc2cc(N3CCOCC3)nc3cc(Cl)ccc23)cc1OC [Compound 28, 7-chloro-N-(3,4-dimethoxyphenyl)-2-morpholinoquinolin-4-amine] | – | 98.4% | 87.8% | 92% | 82.8% | 99.1% | 95.7%
10 | COc1ccc(Nc2cc(N3CCN(C)CC3)nc3cc(Cl)ccc23)cc1OC [Compound 29, 7-chloro-N-(3,4-dimethoxyphenyl)-2-(4-methylpiperazin-1-yl)quinolin-4-amine] | – | 89.6% | 87.6% | 67.2% | 4.8% | 91.2% | 41.6%
11 | COc1ccc(Nc2cc(N3CCOCC3)nc3cc(Cl)ccc23)cc1 [Compound 30, 7-chloro-N-(4-methoxyphenyl)-2-morpholinoquinolin-4-amine] | – | 88% | 73.2% | 87.2% | 37% | 94.2% | 96.4%
12 | COc1ccc(Nc2cc(N3CCN(C)CC3)nc3cc(Cl)ccc23)cc1 [Compound 31, 7-chloro-N-(4-methoxyphenyl)-2-(4-methylpiperazin-1-yl)quinolin-4-amine] | – | 106% | 83.3% | 37.6% | 3.39% | 33.1% | 29.6%
13 | COc1ccc(Nc2cc(OCCN3CCOCC3)nc3cc(Cl)ccc23)cc1OC [Compound 32, 7-chloro-N-(3,4-dimethoxyphenyl)-2-(2-morpholinoethoxy)quinolin-4-amine] | – | 96% | 84.5% | 100% | 82.2% | 98.6% | 99.4%
14 | COc1cc(Nc2ccc(OC)c(OC)c2)c2ccc(Cl)cc2n1 [Compound 33, 7-chloro-N-(3,4-dimethoxyphenyl)-2-methoxyquinolin-4-amine] | – | 106% | 97.2% | 102% | 95.2% | 60.1% | 97.7%
15 | FC(F)Oc1ccc(Nc2ccnc3cc(Cl)ccc23)cc1 [Compound 34, 7-chloro-N-(4-(difluoromethoxy)phenyl)quinolin-4-amine] | – | 96% | 98.6% | 77.6% | 37.9% | 98.7% | 98.3%
16 | COCCOc1cc(Nc2ccnc3cc(Cl)ccc23)ccc1OC [Compound 35, 7-chloro-N-(4-methoxy-3-(2-methoxyethoxy)phenyl)quinolin-4-amine] | – | 104% | 85.3% | 84.7% | 79.9% | 99.1% | 99.5%
17 | FC(F)(F)Oc1ccc(Nc2ccnc3ccc(Cl)cc23)cc1 [Compound 36, 6-chloro-N-(4-(trifluoromethoxy)phenyl)quinolin-4-amine] | – | 105% | 97.7% | 49.7% | 9.89% | 73.4% | 92.1%
18 | COc1ccc(Nc2ccnc3ccc(Cl)cc23)c(OC)c1 [Compound 37, 6-chloro-N-(2,4-dimethoxyphenyl)quinolin-4-amine] | – | 84% | 87.4% | 80.5% | 53% | 98.7% | 94.6%
19 | COc1ccc(Nc2ccnc3cc(Cl)ccc23)cc1OC [Compound 38, 7-chloro-N-(3,4-dimethoxyphenyl)quinolin-4-amine] | – | 90.8% | 46.9% | 33.5% | 15.7% | 99.2% | 93.3%
20 | COc1ccc(Nc2ccnc3cc(Cl)ccc23)c(OC)c1 [Compound 39, 7-chloro-N-(2,4-dimethoxyphenyl)quinolin-4-amine] | – | 88.3% | 34.3% | 18.1% | 13.6% | 99.5% | 100.0%
